According to patent publication US20250034165A1, “COMPOUND CONTAINING CYCLOALKYL OR HALOALKYL” (CHIA TAI TIANQING PHARMACEUTICAL GROUP CO., LTD., priority 2021, published 2025):

Experiments:
[1] = target: EGFR (d746-750 (d19)/T790M) (Homo sapiens (Human), UniProt P00533, DEL746-750/T790M); test: Inhibitory activity for EGFR (d746-750 (d19)/T790M) kinase; type: biochemical; settings: ATP 5 μM
Method: 1.3 Screening for Inhibitory Activity for EGFR (d746-750 (d19)/T790M) Kinase
(§1) A 50 ng/μL EGFR (d746-750/T790M, Carna) stock solution was diluted with a kinase buffer (50 mM HEPES, 10 mM MgCl2, 2 mM DTT, 1 mM EGTA, 0.01% Tween 20), and 6 μL of 1.67× working solution at 0.005 ng/μL (final concentration: 0.003 ng/μL) was added to each well. Different compounds dissolved in DMSO were added to the wells using a nanoliter pipettor, resulting in the final concentrations of the compounds of 10 nM to 0.0024 nM (4-fold gradient for 7 concentrations in total), and blank control wells (without enzyme) and negative control wells (with enzyme, plus vehicle DMSO) were set, 2 replicate wells for each concentration. After enzyme was reacted with the compound or vehicle for 30 min, 5×ATP at 25 μM (final concentration: 5 μM, Sigma) prepared with a kinase buffer was mixed with 5× substrate at 0.5 μM (final concentration: 0.1 μM, ULight-poly GT, PerkinElmer) at a ratio of 1:1 (v:v), and the mixture was added to each well at 4 μL/well. After being sealed with a film, the plate was incubated at room temperature for 2 h, and then 5 μL of 4×EDTA at 40 mM (final concentration: 10 mM) was added to each well. After the plate was incubated for 5 min at room temperature, 5 μL of 4× detection reagent at 8 nM (final concentration: 2 nM, Eu-anti-phospho-tyrosine antibody, PerkinElmer) was added to each well. After being incubated at room temperature for 1 h, the plate was read using a PerkinElmer Envision multi-mode microplate reader (excitation: 320 nm, emission: 665 nm), and IC50 was calculated by four-parameter fitting.

[2] = target: EGFR (d746-750/T790M/C797S) (Homo sapiens (Human), UniProt P00533, C797S/DEL746-750/T790M); test: Inhibitory activity for EGFR (d746-750/T790M/C797S) kinase; type: biochemical; settings: ATP 5 μM; read-out: EGFR(d19/T790M/C797S) (IC50)
Sequence of EGFR (d746-750/T790M/C797S) (P00533 other isoform, or with tags, fused parts or gaps T790M/C797S/del 1-694/del 746-750 limits assumed): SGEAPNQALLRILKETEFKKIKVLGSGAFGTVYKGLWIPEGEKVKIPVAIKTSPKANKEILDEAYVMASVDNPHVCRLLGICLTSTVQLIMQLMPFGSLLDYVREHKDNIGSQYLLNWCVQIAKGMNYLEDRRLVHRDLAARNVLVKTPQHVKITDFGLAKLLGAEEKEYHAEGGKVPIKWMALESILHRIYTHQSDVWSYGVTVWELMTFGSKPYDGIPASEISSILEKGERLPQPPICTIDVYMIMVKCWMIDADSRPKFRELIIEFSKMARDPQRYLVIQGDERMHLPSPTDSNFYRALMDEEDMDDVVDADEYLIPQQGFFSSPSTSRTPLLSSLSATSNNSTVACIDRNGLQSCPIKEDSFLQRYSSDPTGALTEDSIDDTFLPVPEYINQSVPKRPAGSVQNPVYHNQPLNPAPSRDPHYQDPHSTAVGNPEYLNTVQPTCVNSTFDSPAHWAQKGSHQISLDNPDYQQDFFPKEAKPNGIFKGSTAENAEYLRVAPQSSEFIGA
Method: 1.5 Screening for Inhibitory Activity for EGFR (d746-750/T790M/C797S) Kinase
as §1, with “(d746-750/T790M/C797S, BPS)” for “(d746-750/T790M, Carna)”, “0.05” for “0.005”, “0.03” for “0.003”

Sequence of EGFR (d746-750 (d19)/T790M) (P00533 other isoform, or with tags, fused parts or gaps T790M/del 1-668/del 746-750 limits assumed): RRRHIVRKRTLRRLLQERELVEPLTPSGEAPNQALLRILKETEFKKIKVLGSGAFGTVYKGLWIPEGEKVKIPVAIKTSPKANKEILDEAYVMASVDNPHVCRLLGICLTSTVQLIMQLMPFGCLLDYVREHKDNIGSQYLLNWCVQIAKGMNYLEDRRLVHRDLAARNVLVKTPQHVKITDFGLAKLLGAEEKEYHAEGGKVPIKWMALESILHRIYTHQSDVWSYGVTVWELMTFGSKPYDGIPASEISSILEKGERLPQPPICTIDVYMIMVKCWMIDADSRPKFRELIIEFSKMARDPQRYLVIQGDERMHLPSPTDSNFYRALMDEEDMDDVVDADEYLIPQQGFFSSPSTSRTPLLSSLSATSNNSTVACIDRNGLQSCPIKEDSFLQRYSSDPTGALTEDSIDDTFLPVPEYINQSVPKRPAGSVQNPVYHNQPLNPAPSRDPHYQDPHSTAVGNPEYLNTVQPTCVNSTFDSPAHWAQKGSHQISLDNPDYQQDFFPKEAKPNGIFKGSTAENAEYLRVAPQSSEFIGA

SMILES	IC50 [1]	IC50 [2]
Cc1cc2cc(n1)-c1cnn(C)c1OCCC[C@@H](C1CC1)CN1/C(=N/C2=O)Nc2cc(NCCN3CCOCC3)ccc21 [Example 3]	0.014 nM	0.028 nM
Cc1cc2cc(n1)-c1cnn(C3CC3)c1OCCC[C@@H](C)CN1/C(=N/C2=O)Nc2cc(NCCN3CCOCC3)ccc21 [Example 5]	0.05 nM	0.074 nM
Cc1cc2cc(n1)-c1cnn(C3CC3)c1OCCC[C@@H](C)CN1/C(=N/C2=O)Nc2cc(NC3CCN(C)CC3)ccc21 [Example 12]	0.15 nM	0.17 nM
Cc1cc2cc(n1)-c1cnn(C3CC3)c1OCCC[C@@H](C)CN1/C(=N/C2=O)Nc2cc(N[C@@H]3CCOC3)ccc21 [Example 13]	0.058 nM	0.11 nM
Cc1cc2cc(n1)-c1cnn(C3CC3)c1OCCC[C@@H](C)CN1/C(=N/C2=O)Nc2cc(NC[C@H]3COCCO3)ccc21 [Example 14]	0.068 nM	0.1 nM
Cc1cc2cc(n1)-c1cnn(C3CC3)c1OCCC[C@@H](C)CN1/C(=N/C2=O)Nc2ccc(N3CC[C@H](O)C3)cc21 [Example 16]	0.06 nM	0.063 nM
Cc1cc2cc(n1)-c1cnn(C)c1OCCC[C@@H](C1CC1)CN1/C(=N/C2=O)Nc2cc(N[C@@H]3CCCOC3)ccc21 [Example 18]	0.02 nM	0.042 nM
Cc1cc2cc(n1)-c1cnn(C)c1OCCC[C@@H](C1CC1)CN1/C(=N/C2=O)Nc2cc(NC[C@H]3COCCO3)ccc21 [Example 19]	0.015 nM	0.028 nM
Cc1cc2cc(n1)-c1cnn(C)c1OCCC[C@@H](C1CC1)CN1/C(=N/C2=O)Nc2ccc(N3CC[C@H](O)C3)cc21 [Example 21]	0.032 nM	0.059 nM
Cc1cc2cc(n1)-c1cnn(C)c1OCCC[C@@H](C1CC1)CN1/C(=N/C2=O)Nc2cc(NC3COC3(C)C)ccc21 (some centres unmarked) [Example 30]	0.03 nM	0.046 nM
Cc1cc2cc(n1)-c1cnn(C)c1OCCC[C@@H](C1CC1)CN1/C(=N/C2=O)Nc2cc(NC3C(C)(C)OC3(C)C)ccc21 [Example 31]	0.018 nM	0.031 nM
Cc1cc2cc(n1)-c1cnn(C)c1OCCC[C@@H](C1CC1)CN1/C(=N/C2=O)Nc2cc(NC3CNC3)ccc21 [Example 32]	0.01 nM	0.013 nM
Cc1cc2cc(n1)-c1cnn(C)c1OCCC[C@@H](C1CC1)CN1/C(=N/C2=O)Nc2cc(NC3(C)CNC3)ccc21 [Example 34]	0.014 nM	0.016 nM
Cc1cc2cc(n1)-c1cnn(C)c1OCCC[C@@H](C1CC1)CN1/C(=N/C2=O)Nc2cc(N[C@@H]3CCOC3)ccc21 [Example 43]	0.015 nM	0.026 nM
CNCCCNc1ccc2c(c1)N/C1=N\C(=O)c3cc(C)nc(c3)-c3cnn(C)c3OCCC[C@@H](C3CC3)CN12 [Example 49]	0.03 nM	0.039 nM
Cc1cc2cc(n1)-c1cnn(C)c1OCCC[C@@H](C1CC1)CN1/C(=N/C2=O)Nc2cc(NCCCN)ccc21 [Example 50]	0.038 nM	0.053 nM
Cc1cc2cc(n1)-c1cnn(C)c1OCCC[C@@H](C1CC1)CN1/C(=N/C2=O)Nc2cc(NC3CCC3)ccc21 [Example 79]	0.028 nM	0.153 nM
Cc1cc2cc(n1)-c1cnn(C)c1OCCC[C@@H](C1CC1)CN1/C(=N/C2=O)Nc2ccc(NCCCN3CCCC3)cc21 [Example 84]	0.018 nM	0.042 nM
Cc1cc2cc(n1)-c1cnn(C)c1OCCC[C@@H](C1CC1)CN1/C(=N/C2=O)Nc2ccc(NC3CCCC3)cc21 [Example 87]	0.058 nM	0.318 nM
Cc1cc2cc(n1)-c1cnn(C)c1OCCC[C@@H](C1CC1)CN1/C(=N/C2=O)Nc2cc(NC3CC(N(C)C)C3)ccc21 (some centres unmarked) [Example 93]	0.11 nM	–
Cc1cc2cc(n1)-c1cnn(C)c1OCCC[C@@H](C1CC1)CN1/C(=N/C2=O)Nc2cc(NC3CC(F)C3)ccc21 (some centres unmarked) [Example 94]	0.75 nM	–
Cc1cc2cc(n1)-c1cnn(C)c1OCCC[C@@H](C1CC1)CN1/C(=N/C2=O)Nc2ccc(NC(=O)CCCN(C)C)cc21 [Example 113]	–	0.066 nM
